Patent US10233186B2, “Inhibitors of activin receptor-like kinase” (BLUEPRINT MEDICINES CORPORATION, priority 2016, dated 2019)

Experiments:
[1] = molecular target: T1, ALK2 R206H (GST-tagged mutant ALK2) (Homo sapiens, UniProt Q04771, R206H); test: ALK binding assay (LANTHASCREEN TR-FRET competitive binding, displacement of Kinase Tracer 178); conditions: ALK2 R206H, LANTHASCREEN TR-FRET competitive binding; read-out: Binding Assay (IC50)
T1 construct: purchased Carna Bioscience or ThermoFisher 09-148 or PV6232
T1 sequence (Q04771 21-509 R206H): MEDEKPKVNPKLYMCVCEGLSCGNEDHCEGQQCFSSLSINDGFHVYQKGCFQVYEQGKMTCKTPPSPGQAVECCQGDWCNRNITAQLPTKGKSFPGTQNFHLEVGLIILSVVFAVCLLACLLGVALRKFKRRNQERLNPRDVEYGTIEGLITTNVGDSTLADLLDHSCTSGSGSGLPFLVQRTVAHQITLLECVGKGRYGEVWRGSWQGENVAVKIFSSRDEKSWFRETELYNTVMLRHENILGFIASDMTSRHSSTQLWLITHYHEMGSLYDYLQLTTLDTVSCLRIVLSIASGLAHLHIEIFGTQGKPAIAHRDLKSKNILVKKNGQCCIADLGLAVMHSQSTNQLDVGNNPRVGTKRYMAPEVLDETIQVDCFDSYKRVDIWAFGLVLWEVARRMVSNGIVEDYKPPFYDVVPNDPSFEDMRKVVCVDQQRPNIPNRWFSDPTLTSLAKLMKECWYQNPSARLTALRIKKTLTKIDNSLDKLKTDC

[2] = molecular target: T2, human ALK2 R206H (Homo sapiens, UniProt Q04771, R206H); test: Cell-based ALK2-R206H cell activity assay (Smad1-Ser463/Ser465 phosphorylation by AlphaLISA in HEK293-ALK2-R206H cells); conditions: read-out: Cell Line (Cell Assay IC50)
T2 construct: expressed in transfected cells; host or cells: HEK293 (ATCC CRL1573), lentivirus transduction, blasticidin selection
T2 sequence (Q04771 21-509 R206H): T1 sequence (Q04771 21-509 R206H)
Outline: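 Stable HEK293 cells expressing C-terminally FLAG-tagged human ALK2 R206H (lentiviral, blasticidin-selected) were treated with compounds in 10-point, 3-fold dilutions from 10 μM or 1 μM top, in duplicate. Smad1 Ser463/Ser465 phosphorylation was read by AlphaLISA.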

Row | SMILES | IC50 [1] [nM] | IC50 [2] [nM]
1 | CCOC(=O)N1CCN(c2ccnn3cc(-c4ccc(N5CC6(C5)CN(C(C)C)C6)cc4)cc23)CC1 [Compound 338] | < 10 | 100 to 500
2 | CCN1CCN(c2ccc(-c3cc4c(N5CCN(C(=O)C6CCC6)CC5)ccnn4c3)cc2)CC1 [Compound 262] | < 10 | 100 to 500
3 | CCO[C@@]1(c2ccc(-c3cc4c(N5CCN(C(=O)C6CC6)CC5)ccnn4c3)cc2)CCCN(C(C)C)C1 [Compound 656] | < 10 | < 100
4 | O=C(C1CC1)N1CCN(c2ccnn3cc(-c4ccc(N5CCN(CCO)CC5)cc4)cc23)CC1 [Compound 274, cyclopropyl(4-(6-(4-(4-(2-hydroxyethyl)piperazin-1-yl)phenyl)pyrrolo[1,2-b]pyridazin-4-yl)piperazin-1-yl)methanone] | < 10 | 100 to 500
5 | CCC(C)N1CCC[C@@H](c2ccc(-c3cc4c(N5CCN(C(=O)C6CC6)CC5)ccnn4c3)cc2)C1 (stereo partly drawn) [Compound 560] | < 10 | < 100
6 | CC(C)N1CC(F)C(c2ccc(-c3cc4c(N5CCN(C(=O)C6CC6)CC5)ccnn4c3)cc2)C1 (stereo not drawn) [Compound 282] | < 10 | < 100
7 | O=C(C1CC1)N1CCN(c2ccnn3cc(-c4ccc(C5CN6CCSC6=N5)cc4)cc23)CC1 (stereo not drawn) [Compound 515] | < 10 | < 100
8 | CCN1CCC(Oc2ccc(-c3cc4c(N5CCN(C(=O)C6CC6)CC5)ccnn4c3)cc2)C1 (stereo not drawn) [Compound 216] | < 10 | < 100
9 | CC(N)(CO)c1ccc(-c2cc3c(N4CCN(C(=O)C5CC5)CC4)ccnn3c2)cc1 (stereo not drawn) [Compound 455] | < 10 | < 100
10 | N#CC1CN(C(=O)N2CCN(c3ccnn4cc(-c5ccc(OC6CCCNC6)cc5)cc34)CC2)C1 (stereo not drawn) [Compound 309] | < 10 | 100 to 500
11 | COC1(c2ccc(-c3cc4c(N5CCN(C(=O)OC6COC6)CC5)ccnn4c3)nc2)CCN([C@H](C)COC(F)F)CC1 [Compound 898] | < 10 | < 100
12 | COC1(c2ccc(-c3cc4c(N5CCN(C(=O)NC(C)C)CC5)ccnn4c3)cc2)CCNCC1 [Compound 541] | < 10 | < 100
13 | CCN1CC(O)(c2ccc(-c3cc4c(N5CCN(C(=O)C6CC6)CC5)ccnn4c3)cc2)C1 [Compound 161] | < 10 | < 100
14 | CCN1CCN(c2ccc(-c3cc4c(N5CCN(C(=O)[C@H]6C[C@H]6C#N)CC5)ccnn4c3)cc2)CC1 [Compound 301] | < 10 | 100 to 500
15 | CC(C)N1CCC(CO)(c2ccc(-c3cc4c(N5CCN(C(=O)C6CC6)CC5)ccnn4c3)cc2)CC1 [Compound 811] | < 10 | < 100
16 | CC(C)N1CC[C@H](OC(F)F)[C@@H](c2ccc(-c3cc4c(N5CCN(C(=O)OC6COC6)CC5)ccnn4c3)cc2)C1 [Compound 888] | < 10 | < 100
17 | CCO[C@]1(c2ccc(-c3cc4c(N5CCN(C(=O)OC6COC6)CC5)ccnn4c3)cc2)CCCNC1 [Compound 815] | < 10 | < 100
18 | CCN1CCN(c2ccc(-c3cc4c(N5CCN(C(=O)N6CCC6)CC5)ccnn4c3)cc2)CC1 [Compound 272] | 10 to 50 | 100 to 500
19 | COC1(c2ccc(-c3cc4c(N5CCN(C(=O)OC6COC6)CC5)ccnn4c3)nc2)CCN([C@@H](C)COC(F)F)CC1 [Compound 899] | < 10 | < 100
20 | O=C(C1CC1)N1CCN(c2ccnn3cc(-c4nc5c(s4)CNCC5)cc23)CC1 [Compound 109] | < 10 | < 100
21 | CCOC(=O)N1CCN(c2ccnn3cc(-c4ccc(C5(OCC)CCN(C6COC6)CC5)cn4)cc23)CC1 [Compound 845] | < 10 | < 100
